Like-named read-outs stand apart in the source and are kept apart here.

In test [1] the target is T1, Recombinant BTK^C481S kinase (Homo sapiens, UniProt Q06187, C481S).
T1 construct: purchased SignalChem
In words: BTK C481S binding affinity (LanthaScreen TR-FRET). To be noted: Kinase Tracer 236, 5 h incubation. The procedure: (§1) BTK^C481S binding affinity of each compound tested was determined using a time-resolved fluorescence resonance energy transfer (TR-FRET) methodology. 5 nM Recombinant BTK^WT kinase, varying concentrations of inhibitor, 2 nM LanthaScreen™ Eu anti-His Antibody and 30 nM Kinase Tracer 236 was incubated in 1× LanthaScreen™ Kinase Buffer A for 5 h. Recombinant BTK^C481S kinase was purchased from SignalChem and all LanthaScreen™ components were purchased from Invitrogen. Measurements were performed in a reaction volume of 30 μL using half-area 96-well assay plates. The TR-FRET signal was read on a plate reader with an excitation wavelength of 340 nm and detection wavelengths of 615 and 665 nm. Binding affinity was determined for each compound by measuring TR-FRET signal at various concentrations of compound and plotting the relative fluorescence units against the inhibitor concentration to estimate the IC50 from log[Inhibitor] vs response using the Variable Slope model in Graphpad prism from Graphpad software (San Diego, Calif.).
For orientation: In TR-FRET formats the signal depends on donor and acceptor labels being close together.

In a further test the target is T2, Recombinant EGFR (Homo sapiens, UniProt P00533).
T2 construct: purchased Invitrogen
T2 sequence (P00533 25-1210): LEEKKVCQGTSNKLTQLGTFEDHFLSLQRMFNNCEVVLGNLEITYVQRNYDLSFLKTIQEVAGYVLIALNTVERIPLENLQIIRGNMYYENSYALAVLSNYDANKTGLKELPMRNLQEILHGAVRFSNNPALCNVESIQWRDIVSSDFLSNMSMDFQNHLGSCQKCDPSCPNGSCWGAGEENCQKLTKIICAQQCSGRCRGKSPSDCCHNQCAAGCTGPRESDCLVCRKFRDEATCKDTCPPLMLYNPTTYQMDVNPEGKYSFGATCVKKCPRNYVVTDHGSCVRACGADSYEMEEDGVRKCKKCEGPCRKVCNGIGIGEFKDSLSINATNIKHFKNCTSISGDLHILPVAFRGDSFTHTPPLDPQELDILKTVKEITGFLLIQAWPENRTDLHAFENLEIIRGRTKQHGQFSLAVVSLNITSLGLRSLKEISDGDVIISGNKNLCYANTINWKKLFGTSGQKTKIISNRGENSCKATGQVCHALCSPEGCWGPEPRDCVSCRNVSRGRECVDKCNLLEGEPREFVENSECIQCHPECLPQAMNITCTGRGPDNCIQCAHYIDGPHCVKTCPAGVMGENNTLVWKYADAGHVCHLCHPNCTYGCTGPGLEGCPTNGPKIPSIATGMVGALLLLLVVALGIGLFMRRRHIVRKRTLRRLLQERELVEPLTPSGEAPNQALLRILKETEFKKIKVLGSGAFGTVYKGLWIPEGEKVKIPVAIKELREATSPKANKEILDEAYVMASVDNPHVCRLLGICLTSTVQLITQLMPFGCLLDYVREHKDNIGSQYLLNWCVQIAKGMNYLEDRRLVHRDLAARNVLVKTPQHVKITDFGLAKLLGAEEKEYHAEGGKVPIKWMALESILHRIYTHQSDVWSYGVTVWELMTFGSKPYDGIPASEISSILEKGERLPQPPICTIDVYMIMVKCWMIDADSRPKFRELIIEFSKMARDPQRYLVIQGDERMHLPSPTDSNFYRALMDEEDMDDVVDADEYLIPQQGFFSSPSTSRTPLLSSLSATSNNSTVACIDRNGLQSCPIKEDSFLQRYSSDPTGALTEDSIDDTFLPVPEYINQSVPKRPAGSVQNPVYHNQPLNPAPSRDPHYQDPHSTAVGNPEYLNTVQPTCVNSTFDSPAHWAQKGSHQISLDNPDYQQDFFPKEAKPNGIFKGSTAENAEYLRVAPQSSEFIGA
Description: EGFR binding affinity (LanthaScreen TR-FRET). The note with it: Kinase Tracer 199, 5 h incubation. The method, then:
EGFR binding affinity was determined using a time-resolved fluorescence resonance energy transfer (TR-FRET) methodology. […] Recombinant EGFR and all LanthaScreen™ components were purchased from Invitrogen. Measurements were performed in a reaction volume of 30 μL using half-area 96-well assay plates. […] Binding affinity was determined for each compound by measuring TR-FRET signal at various concentrations of compound and plotting the relative fluorescence units against the inhibitor concentration to estimate the IC50 from log[Inhibitor] vs response using the Variable Slope model in Graphpad prism from Graphpad software (San Diego, Calif.).

Test [2] deals with OCI-Ly10 human DLBCL cells. Description: OCI-Ly10 anti-proliferative activity (Resazurin). It is filed as cell-based. The note with it: OCI-Ly10 cells, 72 h compound treatment, Resazurin, read-out: Proliferation Assay OCI-Ly10-20% FBS. The method, then:
Compounds were assayed for effects on the growth of OCI-Ly10 human DLBCL cells that are dependent on NFκB signalling. […] Cells were then plated at 7.5×10^3 cells per well in 96-well plates in varying concentrations of compound and incubated for 72 h at 37° C. An additional plate of cells to be used as the Day 0 read was seeded without compound addition, Resazurin was added to each well, incubated for 5 h and the fluorescence measured at 590 nm. After 72 h of compound treatment, Resazurin was added to each well of the compound treated plates, incubated for 5 h and the fluorescence measured at 590 nm. The IC50 was then calculated by subtracting the average Day 0 value from each well value from the treated plates, each treatment was then calculated as a percentage of the DMSO control and the percentages plotted against the inhibitor concentration to estimate the IC50 from log[Inhibitor] vs response using the Variable Slope model in Graphpad prism from Graphpad software (San Diego, Calif.).

The target in test [3] is T3, Recombinant BTK^WT kinase (Homo sapiens, UniProt Q06187).
T3 construct: purchased Invitrogen
T3 sequence (Q06187 whole entry): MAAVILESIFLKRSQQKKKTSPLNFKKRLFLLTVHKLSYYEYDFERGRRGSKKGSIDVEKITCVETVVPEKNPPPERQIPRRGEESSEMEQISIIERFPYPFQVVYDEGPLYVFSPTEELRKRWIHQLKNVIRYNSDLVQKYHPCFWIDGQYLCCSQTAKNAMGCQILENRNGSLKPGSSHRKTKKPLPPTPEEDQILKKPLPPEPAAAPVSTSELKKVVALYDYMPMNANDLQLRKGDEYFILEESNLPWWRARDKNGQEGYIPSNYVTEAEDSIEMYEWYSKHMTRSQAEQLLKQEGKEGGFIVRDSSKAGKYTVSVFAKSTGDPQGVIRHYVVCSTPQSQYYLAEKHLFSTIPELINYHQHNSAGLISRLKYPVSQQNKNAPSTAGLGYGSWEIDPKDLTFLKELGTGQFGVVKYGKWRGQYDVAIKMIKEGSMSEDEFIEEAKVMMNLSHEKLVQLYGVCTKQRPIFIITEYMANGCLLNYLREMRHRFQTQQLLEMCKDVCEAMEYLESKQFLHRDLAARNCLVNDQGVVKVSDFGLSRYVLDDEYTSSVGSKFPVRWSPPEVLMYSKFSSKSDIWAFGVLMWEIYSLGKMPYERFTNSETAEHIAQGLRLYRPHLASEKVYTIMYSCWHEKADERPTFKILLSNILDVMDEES
Description: BTK WT binding affinity (LanthaScreen TR-FRET). The note with it: Kinase Tracer 236, 5 h incubation. The procedure:
as §1, with “BTK^WT binding” for “BTK^C481S binding”, “methodology. 2.5” for “methodology. 5”, “and 15” for “and 30”, “Recombinant BTK” for “Recombinant BTK^C481S”, “kinase” for “kinase was purchased from SignalChem”

T1 sequence (Q06187 whole entry C481S): as the sequence (Q06187 whole entry) above, with C481S counted along it

Turning to `COc1ccccc1C(=O)NCc1ccc(-c2nn(C(CO)CCl)c(N)c2C(N)=O)cc1` (centres unmarked) [Example 66, 5-amino-1-[1-(chloromethyl)-2-hydroxy-ethyl]-3-[4-[[(2-methoxybenzoyl)amino]methyl]phenyl]pyrazole-4-carboxamide], the IC50 in test [1] was less than 0.01 µM; on Recombinant EGFR, 1 to 10 µM; in test [2] (Homo sapiens, OCI-Ly10, 72 h), 1 to 10 µM; in test [3], 0.01 to 0.1 µM.

`COc1ccc(F)cc1C(=O)NCc1cc(F)c(-c2nn(C3CCOCC3)c(N)c2C(N)=O)cc1F` [Example 146, 5-amino-3-[2,5-difluoro-4-[[(5-fluoro-2-methoxy-benzoyl)amino]methyl]phenyl]-1-tetrahydropyran-4-yl-pyrazole-4-carboxamide]: the IC50 is less than 0.01 µM in test [1]; greater than 10 µM at Recombinant EGFR; 0.1 to 1 µM in test [2] (Homo sapiens, OCI-Ly10, 72 h); less than 0.01 µM in test [3].

Regarding `COCC(C)n1nc(-c2ccc(CNC(=O)c3ccccc3OC)cc2)c(C(N)=O)c1N` (centres unmarked) [Example 143, 5-amino-3-[4-[[(2-methoxybenzoyl)amino]methyl]phenyl]-1-(2-methoxy-1-methyl-ethyl)pyrazole-4-carboxamide], the IC50 was less than 0.01 µM in test [1]; greater than 10 µM at Recombinant EGFR; 0.1 to 1 µM in test [2] (Homo sapiens, OCI-Ly10, 72 h); 0.01 to 0.1 µM in test [3].

On to `COc1ccc(F)cc1C(=O)NCc1c(F)cc(-c2nn(C3CCCC3)c(N)c2C(N)=O)cc1F` [Example 139, 5-amino-1-cyclopentyl-3-[3,5-difluoro-4-[[(5-fluoro-2-methoxy-benzoyl)amino]methyl]phenyl]pyrazole-4-carboxamide], for which the IC50 is less than 0.01 µM in test [1]; greater than 10 µM on Recombinant EGFR; 0.1 to 1 µM in test [2] (Homo sapiens, OCI-Ly10, 72 h); 0.01 to 0.1 µM in test [3].

Consider `COc1ccccc1C(=O)NCc1ccc(-c2nn(C3CCC4(CC3)COC4)c(N)c2C(N)=O)cc1` [Example 71, 5-amino-3-[4-[[(2-methoxybenzoyl)amino]methyl]phenyl]-1-(2-oxaspiro[3.5]nonan-7-yl)pyrazole-4-carboxamide], for which the IC50 is less than 0.01 µM in test [1]; 0.1 to 1 µM on Recombinant EGFR; 0.01 to 0.1 µM in test [2] (Homo sapiens, OCI-Ly10, 72 h); less than 0.01 µM in test [3].

For `COc1ccccc1C(=O)NC(C)c1ccc(-c2nn(C3CCCC3)c(N)c2C(N)=O)cc1` (centres unmarked) [Example 79, 5-amino-1-cyclopentyl-3-[4-[1-[(2-methoxybenzoyl)amino]ethyl]phenyl]pyrazole-4-carboxamide], the IC50 lay in the range of 0.1 to 1 µM in test [1]; 1 to 10 µM on Recombinant EGFR; 1 to 10 µM in test [2] (Homo sapiens, OCI-Ly10, 72 h); 0.1 to 1 µM in test [3].

Take `COc1ccc(F)cc1C(=O)NCc1cc(F)c(-c2nn(C3CCCOC3)c(N)c2C(N)=O)cc1F` (centres unmarked) [Example 149, 5-amino-3-[2,5-difluoro-4-[[(5-fluoro-2-methoxy-benzoyl)amino]methyl]phenyl]-1-tetrahydropyran-3-yl-pyrazole-4-carboxamide]: the IC50 in test [1] is less than 0.01 µM; at Recombinant EGFR, greater than 10 µM; in test [2] (Homo sapiens, OCI-Ly10, 72 h), 0.01 to 0.1 µM; in test [3], less than 0.01 µM.

`COc1ccc(F)cc1C(=O)NCc1ccc(-c2nn(C3CCOCC3)c(N)c2C(N)=O)cc1F` [Example 123, 5-amino-3-[3-fluoro-4-[[(5-fluoro-2-methoxy-benzoyl)amino]methyl]phenyl]-1-tetrahydropyran-4-yl-pyrazole-4-carboxamide]: the IC50 is less than 0.01 µM in test [1]; 1 to 10 µM at Recombinant EGFR; 0.1 to 1 µM in test [2] (Homo sapiens, OCI-Ly10, 72 h); less than 0.01 µM in test [3].

Take `COc1ccccc1C(=O)NCc1ccc(-c2nn(C3CCOCC3F)c(N)c2C(N)=O)cc1` (single isomer, unassigned) [Example 95, 5-amino-1-[3-fluorotetrahydropyran-4-yl]-3-[4-[[(2-methoxybenzoyl)amino]methyl]phenyl]pyrazole-4-carboxamide]: the IC50 in test [1] was less than 0.01 µM; on Recombinant EGFR, 1 to 10 µM; in test [2], 0.1 to 1 µM; in test [3], 0.01 to 0.1 µM.

Turning to `COc1ccccc1C(=O)NCc1ccc(-c2nn(CCC#N)c(N)c2C(N)=O)cc1` [Example 11, 5-Amino-1-(2-cyanoethyl)-3-[4-[[(2-methoxybenzoyl)amino]methyl]phenyl]pyrazole-4-carboxamide], the IC50 fell in the range of 0.01 to 0.1 µM in test [1]; 1 to 10 µM at Recombinant EGFR; 1 to 10 µM in test [2] (Homo sapiens, OCI-Ly10, 72 h); 0.01 to 0.1 µM in test [3].

Consider `COC(=O)c1ccc(-n2nc(-c3ccc(CNC(=O)c4ccccc4OC)cc3)c(C(N)=O)c2N)cc1` [Example 45, Methyl 4-[5-amino-4-carbamoyl-3-[4-[[(2-methoxybenzoyl)amino]methyl]phenyl]pyrazol-1-yl]benzoate], for which the IC50 in test [1] was less than 0.01 µM; at Recombinant EGFR, 1 to 10 µM; in test [2] (Homo sapiens, OCI-Ly10, 72 h), 0.01 to 0.1 µM; in test [3], less than 0.01 µM.

Take `COc1ccccc1C(=O)NCc1cc(F)c(-c2nn(C3CCOC3)c(N)c2C(N)=O)cc1F` (centres unmarked) [Example 152, 5-amino-3-[2,5-difluoro-4-[[(2-methoxybenzoyl)amino]methyl]phenyl]-1-tetrahydrofuran-3-yl-pyrazole-4-carboxamide]: the IC50 was 0.01 to 0.1 µM in test [1]; greater than 10 µM on Recombinant EGFR; 0.1 to 1 µM in test [2] (Homo sapiens, OCI-Ly10, 72 h); 0.01 to 0.1 µM in test [3].

Regarding `COc1ccccc1C(=O)NCc1ccc(-c2nn(C3CCOCC3(C)C)c(N)c2C(N)=O)cc1` (centres unmarked) [Example 89, 5-amino-1-(3,3-dimethyltetrahydropyran-4-yl)-3-[4-[[(2-methoxybenzoyl)amino]methyl]phenyl]pyrazole-4-carboxamide], the IC50 in test [1] was in the range of 0.01 to 0.1 µM; on Recombinant EGFR, 1 to 10 µM; in test [2] (Homo sapiens, OCI-Ly10, 72 h), 1 to 10 µM; in test [3], 0.01 to 0.1 µM.

As for `COc1ccccc1C(=O)NCc1ccc(-c2nn(-c3ccccc3C)c(N)c2C(N)=O)cc1` [Example 47, 5-amino-3-[4-[[(2-methoxybenzoyl)amino]methyl]phenyl]-1-(o-tolyl)pyrazole-4-carboxamide], the IC50 in test [1] is less than 0.01 µM; at Recombinant EGFR, 1 to 10 µM; in test [2] (Homo sapiens, OCI-Ly10, 72 h) it was 0.1 to 1 µM; in test [3], 0.01 to 0.1 µM.

On to `COc1ccc(F)cc1C(=O)NCc1c(F)cc(-c2nn(C3CCCOC3)c(N)c2C(N)=O)cc1F` (centres unmarked) [Example 158, 5-amino-3-[3,5-difluoro-4-[[(5-fluoro-2-methoxy-benzoyl)amino]methyl]phenyl]-1-tetrahydropyran-3-yl-pyrazole-4-carboxamide], for which the IC50 in test [1] was 0.01 to 0.1 µM; on Recombinant EGFR, greater than 10 µM; in test [2] (Homo sapiens, OCI-Ly10, 72 h), 0.1 to 1 µM; in test [3], 0.01 to 0.1 µM.

On to `COc1ccccc1C(=O)NCc1ccc(-c2nn(C3CC3)c(N)c2C(N)=O)cc1` [Example 29, 5-Amino-1-cyclopropyl-3-[4-[[(2-methoxybenzoyl)amino]methyl]phenyl]pyrazole-4-carboxamide], for which the IC50 in test [1] was less than 0.01 µM; at Recombinant EGFR it was 1 to 10 µM; in test [2] (Homo sapiens, OCI-Ly10, 72 h), 0.1 to 1 µM; in test [3], less than 0.01 µM.

For the molecule `COc1ccccc1C(=O)NCc1ccc(-c2nn(C3CCC(C)C3)c(N)c2C(N)=O)cc1` (centres unmarked) [Example 5, 5-Amino-3-[4-[[(2-methoxybenzoyl)amino]methyl]phenyl]-1-(3-methylcyclopentyl)pyrazole-4-carboxamide], the IC50 in test [1] is less than 0.01 µM; at Recombinant EGFR it was 0.1 to 1 µM; in test [2] (Homo sapiens, OCI-Ly10, 72 h), 0.01 to 0.1 µM; in test [3], less than 0.01 µM.

The values are drawn from US11826351B2, “Compounds useful as kinase inhibitors” (Loxo Oncology, Inc., priority 2015, dated 2023).
